Source: article PMC8350397, “GSK137, a potent small-molecule BCL6 inhibitor with in vivo activity, suppresses antibody responses in mice” (The Journal of Biological Chemistry, 2021)

Legend:
[1] = tested on: BCL6 BTB-POZ domain; details: read-out: potency on BCL6 BTB-POZ domain; cited from earlier work
[2] = tested on: splenic germinal centers; test: Spleen immunohistochemistry of germinal centers; format: in vivo, mouse
Procedure: Immunohistochemistry of GCs in spleens was obtained from a pilot experiment to test immunization conditions carried out at the University of Leicester using groups of C57BL/6J mice. One group of mice was immunized with TNP-KLH (100 μg) followed by treatment with GSK137 15 mg/kg by oral gavage three times per day from day -1 to day +12 (n = 3), whereas the other was treated with vehicle by oral gavage three times per day from day -1 to day +12 following immunization (n = 6). Formalin-fixed paraffin-embedded sections of mouse spleen were stained with antimouse B220/CD45R (BD Biosciences; catalog no. 550286), […] (Abcam; ab32064), and anti-Ki67 (Abcam; ab15580) antibodies using Opal Multiplex IHC detection kit (NEL810001KT; Akoya Biosciences). The sections were counterstained with 4',6-diamidino-2-phenylindole for 5 min and mounted with ProLong Diamond Antifade mountant (Invitrogen; P36970). Images were obtained using Vectra Polaris multicolor fluorescence scanner (Akoya Biosciences). Quantification was carried out by inForm image analysis software (Akoya Biosciences). Normality tests were carried out for the B220^+Ki67^+ and […]^+ data. Both datasets were normally distributed, and accordingly, statistical significance was determined by unpaired t test.

[3] = target: T1, human BCL6 BTB-POZ domain (BCL6 co-repressor peptide) (Homo sapiens, UniProt P41182, C67R/C84N/C8Q); test: BCL6 TR-FRET assay, BCOR peptide displacement; format: binding; details: read-out: pIC50 Human TR-FRET BCL6 co-repressor (converted)
T1 construct: BCL6-Flag-6H-Avi (5-129) C8Q, C67R, C84N proteins; Flag (C); 6H (His6) (C); made in house; host or cells: E. coli
Procedure: (§1) Human, mouse and rat BCL6-Flag-6H-Avi (5-129) C8Q, C67R, C84N proteins were expressed in E. coli according to standard procedures and purified on Ni-NTA, followed by ion exchange on a Source 30Q column and size exclusion on an Superdex 200 column in a buffer of 20 mM Tris, 250 mM NaCl, 5 mM DTT, 5% glycerol, pH 8.5. All protein purities were estimated to be >90% by SDS-PAGE and the expected masses were confirmed by MS analysis. For TR-FRET assay protein was enzymatically biotinylated by treatment of protein at 100 µM with a 2 fold molar excess of biotin in the presence of 2 mM ATP and 1 µM BirA enzyme in a buffer of 50 mM bicine pH 8.3, 10 mM MgCl2 at 30 °C for 1 hour, followed by extensivedialysis against 50 mM Tris-Cl pH 8.0, 100 mM NaCl, 1 mM DTT using a 3.5 kDa cut-off membrane. Biotinylation was confirmed by MS analysis and concentration was determined by Bradford assay, after which protein was stored in aliquots at -80 °C.
(§2) Acceptor-labelled SMRT peptide H2N-[…](D2)-OH was dissolved in water by mass to give a 500 µM stock solution which was stored at -20 °C. Acceptor-labelled NCOR peptide H2N-[…](Alexa Fluor 647)-OH and acceptor-labelled BCOR peptide H2N-[…](Alexa Fluor 647)-OH were dissolved to a nominal concentration of 1 mM in DMSO, and stock solution concentration was determined by absorbance at 650 nm using an extinction coefficient of 270,000 M-1cm^-1. […]

[4] = target: T2, rat BCL6 and SMRT (Rattus norvegicus, UniProt B2GUV8, C67R/C84N/C8Q); test: BCL6 TR-FRET assay, rat BCL6 and SMRT; format: binding
T2 construct: BCL6-Flag-6H-Avi (5-129) C8Q, C67R, C84N proteins; Flag (C); 6H (His6) (C); made in house; host or cells: E. coli
Procedure: as §1, §2

[5] = target: T3, mouse BCL6 and SMRT (Mus musculus, UniProt P41183, C67R/C84N/C8Q); test: BCL6 TR-FRET assay, mouse BCL6 and SMRT; format: binding
T3 construct: BCL6-Flag-6H-Avi (5-129) C8Q, C67R, C84N proteins; Flag (C); 6H (His6) (C); made in house; host or cells: E. coli
Procedure: as §1, §2

Q: With `CNC(=O)COc1cc2cc(Nc3nc(N4C[C@H](C)C[C@H](C)C4)ncc3Cl)ccc2n(C)c1=O` [BI3802, reference compound] as the compound, how does the IC50 [1] read?
A: The IC50 was under 3 nM.

Q: With `Cc1ncccc1[C@H]1C[C@@H](c2cccc3nc(N)ccc23)Nc2c(F)cnn21` [GSK137, 5-((5S,7R)-3-Fluoro-7-(2-methylpyridin-3-yl)-4,5,6,7-tetrahydropyrazolo[1,5-a]pyrimidin-5-yl)quinolin-2-amine] as the compound, how does the “fraction of B220+ cells expressing clPARP within splenic B-cell follicles vs control” value ([2]; 15 mg/kg) read?
A: Its value is “no significant difference”.

Q: What about the “number of GCs per follicle (mean ± SD)” value ([2]; 15 mg/kg orally TID, C57BL/6J mice, vehicle 0.5 ± 0.11, p = 0.04) of the same compound?
A: Its value is 0.27 ± 0.06.

Q: What about the “numbers of B220+Ki-67+ cells within each GC vs vehicle” value ([2]; 15 mg/kg, unpaired t test, p = 0.01) of the same compound?
A: The value was “significant reductions”.

Q: And the IC50 [3]?
A: The IC50 was 25.1 nM.

Q: And the “pIC50 Rat TR-FRET SMRT” value [4]?
A: Its value is 7.6.

Q: And the “pIC50 Mouse TR-FRET SMRT” value [5]?
A: Its value is 7.8.
